Laboratory results from paper PMC7468108 (Communications Biology, 2020).

Legend:
[1] = target: T1, pre-formed fibrils of hIAPP (Homo sapiens, UniProt P10997); assay: TEM of pre-formed hIAPP fibrils with the tested molecules; conditions: 5-fold molar excess of compound
T1 construct: hIAPP is a 37-amino acid neuroendocrine peptide hormone; purchased Peptide 2.0 (USA)
T1 sequence (P10997 34-70 limits assumed): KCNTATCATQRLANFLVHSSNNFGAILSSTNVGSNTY
Description: For efficient treatment of proteinopathies it may be advantageous to disassemble amyloid aggregates/fibrils which are usually already present at the time of diagnosis[75]–[77]. Therefore, the ability of the hybrid molecules to disrupt pre-formed fibrils of Aβ42 and hIAPP was examined. […] According to the ThT kinetic results, this time was sufficient to complete fibril formation (Fig. 2a, d). Then, various doses of the hybrid molecules were added to the pre-formed fibrils and the mixtures were incubated for additional 10 h. The process of disaggregation was monitored by ThT-binding assay, CD spectroscopy, TEM and Congo red staining (Fig. 5).
Samples (10 µL) were placed for 2 min on 400-mesh copper grids covered with carbon-stabilized Formvar film (Electron Microscopy Sciences (EMS), Hatfield, PA). Excess fluid was removed, and grids were negatively stained with 2% uranyl acetate solution (10 µL) for 2 min. After excess fluid removal, the samples were visualized using a JEM-1400 TEM (JEOL), operated at 80 kV.

hIAPP = target: T2, hIAPP (Homo sapiens, UniProt P10997); assay: CD spectroscopy of hIAPP aggregated with the tested molecules; conditions: increasing doses up to 5-fold molar excess
T2 construct: hIAPP is a 37-amino acid neuroendocrine peptide hormone; purchased Peptide 2.0 (USA)
T2 sequence (P10997 34-70 limits assumed): T1 sequence (P10997 34-70 limits assumed)
Description: CD analysis was performed also for hIAPP (Fig. 2f and Supplementary Fig. 5). […] With different degrees of effectiveness, the presence of all tested hybrid molecules caused a reduction of the intensity of the CD signal, indicating an overall lower of β-sheet content of hIAPP (Fig. 2f and Supplementary Fig. 5).
(§1) The blank was subtracted from the acquired CD spectra. For the CD study in the presence of the tryptophan-galacosylamine molecules, the spectra of hybrid molecules were also recorded separately and subtracted from the respective sample spectra. The normalized data were plotted using Origin pro 2015 software.

[2] = target: T3, pre-formed fibrils of Aβ42 (Homo sapiens, UniProt P05067); assay: CD spectroscopy of pre-formed Aβ42 fibrils with the tested molecules; conditions: Aβ42 (10 µM) : molecule 1:5
T3 construct: purchased rPeptide (USA)
T3 sequence (P05067 672-713 limits assumed): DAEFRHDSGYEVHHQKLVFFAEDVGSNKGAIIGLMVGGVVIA
Description: For efficient treatment of proteinopathies it may be advantageous to disassemble amyloid aggregates/fibrils which are usually already present at the time of diagnosis[75]–[77]. […] Then, various doses of the hybrid molecules were added to the pre-formed fibrils and the mixtures were incubated for additional 10 h. The process of disaggregation was monitored by ThT-binding assay, CD spectroscopy, TEM and Congo red staining (Fig. 5).
as §1

NC(Cc1c[nH]c2ccccc12)C(=O)NC(Cc1c[nH]c2ccccc12)C(=O)O (stereo not drawn) [WW]
pre-formed hIAPP fibrils by TEM, in words [1]: unchanged
effect on hIAPP secondary structure (CD), in words (hIAPP): substantial effect
Normalized CD spectra ([2]; wave length 190.00): -73553.54
Normalized CD spectra ([2]; wave length 190.50): -15766.44
Normalized CD spectra ([2]; wave length 191.00): 35958.05
Normalized CD spectra ([2]; wave length 191.50): 81619.94
Normalized CD spectra ([2]; wave length 192.00): 121219.23
Normalized CD spectra ([2]; wave length 192.50): 154755.92
Normalized CD spectra ([2]; wave length 193.00): 182230.00
Normalized CD spectra ([2]; wave length 193.50): 203641.48
Normalized CD spectra ([2]; wave length 194.00): 218990.36
Normalized CD spectra ([2]; wave length 194.50): 228276.63
Normalized CD spectra ([2]; wave length 195.00): 231500.30
Normalized CD spectra ([2]; wave length 195.50): 225800.71
Normalized CD spectra ([2]; wave length 196.00): 212602.53
Normalized CD spectra ([2]; wave length 196.50): 192673.83
Normalized CD spectra ([2]; wave length 197.00): 167389.33
Normalized CD spectra ([2]; wave length 197.50): 138095.62
Normalized CD spectra ([2]; wave length 198.00): 105620.63
Normalized CD spectra ([2]; wave length 198.50): 71268.15
Normalized CD spectra ([2]; wave length 199.00): 34612.79
Normalized CD spectra ([2]; wave length 199.50): -3059.42
Normalized CD spectra ([2]; wave length 200.00): -41012.41
Normalized CD spectra ([2]; wave length 200.50): -77900.86
Normalized CD spectra ([2]; wave length 201.00): -113482.60
Normalized CD spectra ([2]; wave length 201.50): -149046.90
Normalized CD spectra ([2]; wave length 202.00): -184972.48
Normalized CD spectra ([2]; wave length 202.50): -219485.50
Normalized CD spectra ([2]; wave length 203.00): -252839.40
Normalized CD spectra ([2]; wave length 203.50): -284772.39
Normalized CD spectra ([2]; wave length 204.00): -314917.56
Normalized CD spectra ([2]; wave length 204.50): -342821.04
Normalized CD spectra ([2]; wave length 205.00): -369216.74
Normalized CD spectra ([2]; wave length 205.50): -393550.37
Normalized CD spectra ([2]; wave length 206.00): -417348.83
Normalized CD spectra ([2]; wave length 206.50): -438915.06
Normalized CD spectra ([2]; wave length 207.00): -457557.09
Normalized CD spectra ([2]; wave length 207.50): -473195.60
Normalized CD spectra ([2]; wave length 208.00): -486009.60
Normalized CD spectra ([2]; wave length 208.50): -496658.21
Normalized CD spectra ([2]; wave length 209.00): -506978.42
Normalized CD spectra ([2]; wave length 209.50): -515749.12
Normalized CD spectra ([2]; wave length 210.00): -522740.26
Normalized CD spectra ([2]; wave length 210.50): -528398.60
Normalized CD spectra ([2]; wave length 211.00): -534227.02
Normalized CD spectra ([2]; wave length 211.50): -539337.45
Normalized CD spectra ([2]; wave length 212.00): -544717.07
Normalized CD spectra ([2]; wave length 212.50): -549064.94
Normalized CD spectra ([2]; wave length 213.00): -552893.06
Normalized CD spectra ([2]; wave length 232.00): -158822.48
Normalized CD spectra ([2]; wave length 232.50): -145896.86
Normalized CD spectra ([2]; wave length 233.00): -133288.90
Normalized CD spectra ([2]; wave length 233.50): -121276.73
Normalized CD spectra ([2]; wave length 234.00): -108420.01
Normalized CD spectra ([2]; wave length 234.50): -94402.20
Normalized CD spectra ([2]; wave length 235.00): -80851.94
Normalized CD spectra ([2]; wave length 235.50): -67553.80
Normalized CD spectra ([2]; wave length 236.00): -53046.10
Normalized CD spectra ([2]; wave length 236.50): -38359.94
Normalized CD spectra ([2]; wave length 237.00): -24169.94
Normalized CD spectra ([2]; wave length 237.50): -9295.33
Normalized CD spectra ([2]; wave length 238.00): 4979.26
Normalized CD spectra ([2]; wave length 238.50): 18805.26
Normalized CD spectra ([2]; wave length 239.00): 32522.94
Normalized CD spectra ([2]; wave length 239.50): 44912.46
Normalized CD spectra ([2]; wave length 240.00): 56635.42
Normalized CD spectra ([2]; wave length 240.50): 67013.51
Normalized CD spectra ([2]; wave length 241.00): 74841.22
Normalized CD spectra ([2]; wave length 241.50): 81258.78
Normalized CD spectra ([2]; wave length 242.00): 86276.81
Normalized CD spectra ([2]; wave length 242.50): 90384.02
Normalized CD spectra ([2]; wave length 243.00): 92798.03
Normalized CD spectra ([2]; wave length 243.50): 93594.35
Normalized CD spectra ([2]; wave length 244.00): 93999.17
Normalized CD spectra ([2]; wave length 244.50): 92992.13
Normalized CD spectra ([2]; wave length 245.00): 90422.16
Normalized CD spectra ([2]; wave length 245.50): 86663.60
Normalized CD spectra ([2]; wave length 246.00): 82929.71
Normalized CD spectra ([2]; wave length 246.50): 77838.15
Normalized CD spectra ([2]; wave length 247.00): 72115.03
Normalized CD spectra ([2]; wave length 247.50): 67454.01
Normalized CD spectra ([2]; wave length 248.00): 62170.09
Normalized CD spectra ([2]; wave length 248.50): 58159.55
Normalized CD spectra ([2]; wave length 249.00): 54507.86
Normalized CD spectra ([2]; wave length 249.50): 50774.14
Normalized CD spectra ([2]; wave length 250.00): 48265.73
Normalized CD spectra ([2]; wave length 250.50): 46578.32
Normalized CD spectra ([2]; wave length 251.00): 45531.49
Normalized CD spectra ([2]; wave length 251.50): 45968.11
Normalized CD spectra ([2]; wave length 252.00): 46977.38
Normalized CD spectra ([2]; wave length 252.50): 48862.26
Normalized CD spectra ([2]; wave length 253.00): 50826.53
Normalized CD spectra ([2]; wave length 253.50): 52698.23
Normalized CD spectra ([2]; wave length 254.00): 54591.66
Normalized CD spectra ([2]; wave length 254.50): 55574.45
Normalized CD spectra ([2]; wave length 255.00): 55730.02
Normalized CD spectra ([2]; wave length 255.50): 53034.53
Normalized CD spectra ([2]; wave length 256.00): 49400.95
Normalized CD spectra ([2]; wave length 256.50): 44829.26
Normalized CD spectra ([2]; wave length 257.00): 39319.47
Normalized CD spectra ([2]; wave length 257.50): 32871.59
Normalized CD spectra ([2]; wave length 258.00): 25485.60
